Reference: patent US11400091B2, “AXL kinase inhibitors and use of the same” (Sumitomo Pharma Oncology, Inc., priority 2018, dated 2022)

Legend:
[1] = tested on: ES-2 ovarian clear cell carcinoma; experiment: ES-2 intraperitoneal xenograft model; format: in vivo, mice; conditions: 60 mg/kg; compared to vehicle or cisplatin […] iv 1/wk
[2] = Safety 44 panel receptor and enzyme screening (Cerep); format: binding; conditions: 10 μM (highest dose tested); panel of 44
Experimental: Based on animal pharmacokinetic data, animal efficacy models and toxicology data, 10 μM concentrations have not been reached in animals and are not expected to be achieved in future human studies.

[3] = Single dose toxicity study; format: in vivo; conditions: single oral 150 mg/kg (free base equivalent); by the end of the recovery period
Experimental: The FB dose levels evaluated were 20, 50, and 150 mg/kg. The test articles were formulated with 1% Tween 80/5% TPGS/Sterile Water for Injection (v/v/v) and the study designed as indicated in Table 15 below:
Endpoints in the study consisted of mortality checks, clinical observations, body weight measurements and toxicokinetics. Following a 7-day post-dose observation period, animals were euthanized, necropsied and macroscopic observations recorded.

For CN1CCN(Cc2ccc(Nc3ncc(Cl)c(Nc4ccccc4S(=O)(=O)N(C)C)n3)cc2)CC1 [compound of structure (I), 2-((5-chloro-2-((4-((4-methylpiperazin-1-yl)methyl)phenyl)amino)pyrimidin-4-yl)amino)-N,N-dimethylbenzenesulfonamide], the overall survival [1] was “prolonged overall survival significantly”, the “number of panel assays inhibited” value [2] was 15 and the mortality [3] was 100%.
